Measurements from the supplement of paper PMC10307832.

Experiments:
Assay in all cases: relative viability (nuclei count vs DMSO), 5 days (fraction); higher = more cells survive
[1] = compound: C1=CC=C2C(=C1)N=C(S2)C(C#N)C3=NC(=NC=C3)NCCC4=CN=CC=C4 + C[C@]1(O)C[C@@H](c2nc(-c3ccc4ccc(-c5ccccc5)nc4c3)c3c(N)nccn32)C1 [Linsitinib] (partner 1 µM)
Method in brief: (§1)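 For relative viability, nuclei counts in treated wells were divided by those in vehicle wells. Lung cancer cell lines had been pin-tool dosed in 1536-well plates the day after seeding and cultured for 5 days, then fixed and stained in one step (final 0.05% Triton X-100, 1% formaldehyde, 1 ug/ml Hoechst) and imaged at 4×. Doses were one drug alone or a fixed anchor-drug dose plus five library-drug doses (not always all listed) in √10 steps, and values are duplicate-plate medians.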

[2] = compound: C1=CC=C2C(=C1)N=C(S2)C(C#N)C3=NC(=NC=C3)NCCC4=CN=CC=C4 + NC(=O)Nc1cc(-c2cccc(F)c2)sc1C(=O)N[C@H]1CCCNC1 [AZD7762] (partner 0.2 µM)
Method in brief: as §1

Vandetanib + Alpelisib = compound: COc1cc2/c(=N/c3ccc(Br)cc3F)nc[nH]c2cc1OCC1CCN(C)CC1 [Vandetanib] + Cc1nc(NC(=O)N2CCC[C@H]2C(N)=O)sc1-c1ccnc(C(C)(C)C(F)(F)F)c1 [Alpelisib] (partner 2 µM)
Method in brief: as §1

NVP-TAE684 + Dasatinib = compound: COc1cc(N2CCC(N3CCN(C)CC3)CC2)ccc1Nc1ncc(Cl)c(Nc2ccccc2S(=O)(=O)C(C)C)n1 [NVP-TAE684] + Cc1nc(Nc2ncc(C(=O)Nc3c(C)cccc3Cl)s2)cc(N2CCN(CCO)CC2)n1 [Dasatinib] (partner 0.075 µM)
Method in brief: as §1

Cell Line	relative viability ([1]; first compound 0.005 µM)	relative viability ([1]; first compound 0.01581 µM)	relative viability ([1]; first compound 0.05 µM)	relative viability ([1]; first compound 0.1581 µM)	relative viability ([1]; first compound 0.5 µM)	relative viability ([2]; first compound 0.005 µM)	relative viability ([2]; first compound 0.01581 µM)	relative viability ([2]; first compound 0.05 µM)	relative viability ([2]; first compound 0.1581 µM)	relative viability ([2]; first compound 0.5 µM)	relative viability (Vandetanib + Alpelisib; first compound 0.02 µM)	relative viability (Vandetanib + Alpelisib; first compound 0.06325 µM)	relative viability (Vandetanib + Alpelisib; first compound 0.2 µM)	relative viability (Vandetanib + Alpelisib; first compound 0.6325 µM)	relative viability (Vandetanib + Alpelisib; first compound 2 µM)	relative viability (NVP-TAE684 + Dasatinib; first compound 0.2 µM)	relative viability (NVP-TAE684 + Dasatinib; first compound 0.6325 µM)	relative viability (NVP-TAE684 + Dasatinib; first compound 2 µM)
NCI-H1944	1.09	1.25	1.2	1.34	1.2	0.541	0.557	0.603	0.466	0.456	0.781	0.81	0.807	0.757	0.744	0.212	0.202	0.161
NCI-H1975	0.823	1.07	0.972	1.07	0.738	0.639	0.635	0.711	0.743	0.506	0.583	0.573	0.597	0.63	0.477	0.361	0.225	0.186
NCI-H1993	0.861	0.784	0.749	0.749	0.681	0.664	0.749	1.03	1.01	0.7	0.668	0.706	0.648	0.582	0.703	0.499	0.548	0.581
NCI-H2085	0.694	0.978	0.867	1.04	0.839	0.833	0.956	1.02	1.07	0.905	0.98	0.901	0.873	0.869	0.936	0.187	0.16	0.162
